Assays:
Assay type in all cases: cell-based, human
[1] = system: RANK OE cells (MCF-7^OE, T47D^OE) and parental MCF-7, T47D cells; experiment: Alamar blue viability assay, RANK OE luminal breast cancer cells vs parental counterparts; conditions: RANK OE cells vs parental counterparts; drug alone; 7 days
Protocol: (§1) Cells were seeded in 96 well-plates (2-5×10^4 cells/mL), with or without paclitaxel (Y0000698, Sigma), doxorubicin hydrochloride (D2975000, Sigma), palbociclib (PD 0332991 isethionate, PZ0199, Sigma), ribociclib (LEE011 succinate, SC-488174, Santa Cruz), abemaciclib mesylate (LY2835219, S7158, Selleckchem), fulvestrant (S1191, Selleckchem), everolimus (#73122, StemCell Technologies), full length human OPG (SRP3132, Sigma), and OPG-Fc (Amgen). Medium was replaced every 2 days. After 7 days, 1:10 Alamar blue (Invitrogen) was added to each well and fluorescence was measured 2 hours after incubation (excitation 560 nm; emission 590 nm) in an Infinite M200 microplate reader (Tecan).
In particular, RANK OE cells were tested for responsiveness to hormone therapy. Briefly, RANK OE cells were seeded in multi-well plates and exposed to fulvestrant for 7 days.
In this assay, however, RANK OE cells were exposed to a CDK 4/6 inhibitor alone or in combination with an inhibitor of the RANK pathway, in order to test the effect of blocking the RANK pathway in this context. Briefly, RANK OE cells were seeded in multi-well plates and exposed to palbociclib, ribociclib or abemaciclib alone or in combination with OPG-Fc for 7 days. Osteoprotegrin (OPG) is the physiologic soluble decoy receptor for RANK ligand (RANKL), and OPG-Fc is a fusion protein comprising only the four cysteine-rich domains of OPG (D1 to D4) fused with the Fc domain of an IgG1 antibody.
In this study, the CDK4/6 inhibitors palbociclib and ribociclib were exposed to RANK OE cells in combination with fulvestrant or everolimus. This combination therapy was then tested alone or in combination with OPG, an inhibitor of the RANK pathway. In this assay, the full-length OPG protein was used, in contrast to the previous example utilizing OPG-Fc.
To address this question, cell growth in the presence or absence of a CDK4 inhibitor was quantified. Briefly, cells were seeded in 96-well plates and exposed to two different drugs, CDK4 inhibitors, 3-ATA (FIG. 20A) or Cdk4 inhibitor Ill (FIG. 20B) for seven days. Medium was replaced every two days, and viability was assessed by Alamar blue assay. FIG. 20A provides the cell growth quantification in the presence of the CDK4 inhibitor 3-ATA and FIG. 20B provides the cell growth quantification in the presence of another CDK4 inhibitor, Cdk4 Inhibitor Ill. The results are the mean of at least three independent assays, with 4 replicates per assay, and presented as the mean±SEM. p-value was calculated using 2-way ANOVA, *p<0.05, **p<0.01, ***p<0.001.
To answer this question, cell growth in the presence of the pan-CDK inhibitor seliciclib (also known as roscovitine or CYC202) was analyzed. Briefly, cells were seeded in 96-well plates and exposed to different drugs for seven days. Medium was replaced every two days, and viability was assessed by Alamar blue assay.
(§2) Cells were seeded in 96 well-plates (2-5×10^4 cells/mL), with or without palbociclib (PD 0332991 isethionate, PZ0199, Sigma), ribociclib (LEE011 succinate, SC-488174, Santa Cruz), abemaciclib mesylate (LY2835219, S7158, Selleckchem), 3-ATA (sc-202414, Santa Cruz), Cdk4 inhibitor Ill (sc-202988, Santa Cruz), seliciclib (S1153, Selleckchem), and OPG-Fc (PL-33324, Amgen). Medium was replaced every 2 days. After 7 days, 1:10 Alamar blue (Invitrogen) was added to each well and fluorescence was measured 2 hours after incubation (excitation 560 nm; emission 590 nm) in an Infinite M200 microplate reader (Tecan).

MDA-MB-231 TNBC cells = experiment: Alamar blue viability assay, MDA-MB-231 TNBC cells with or without RANK knockdown; conditions: 7 days
Protocol: For lentiviral transduction, MDA-MB-231GFP+Luc+ cells were seeded in 24-well plates, at a density of 4×10^4 cells/well. 24 hours after seeding, medium was replaced by fresh medium containing 8 μg/ml Polybrene (Sigma) and RANK shRNA (h) lentiviral particles (15-20 μl/well; sc-42960-V, Santa Cruz) or control shRNA lentiviral particles (15-20 μl/well; sc-108080, Santa Cruz). Cells were selected with 0.5 μg/mL Puromycin dihydrochloride (Sigma) starting three days after transduction.
as §1
RANK KD clones were first generated for use in sensitivity assays. Briefly, MCF-7GFP+Luc+ cells were seeded in multi-well plates and then exposed to fresh medium comprising RANK shRNA (h) lentiviral particles or control shRNA lentiviral particles. The transduced cells were selected using Puromycin dihydrochloride starting three days post-transduction.

[2] = system: TNBC cells (MDA-MB-231, MDA-MB-436, MDA-MB-468, MDA-MB-157, HCC1937, BT-20); experiment: Alamar blue viability assay, TNBC cell lines with or without OPG-Fc; conditions: 7 days
Protocol: as §1
Medium was replaced every two days, and viability was assessed by Alamar blue assay.
as §2

SMILES: CC(=O)c1c(C)c2cnc(Nc3ccc(N4CCNCC4)cn3)nc2n(C2CCCC2)c1=O [palbociclib]
- sensitivity of RANK OE cells to the drug (cell viability) [1]: decreased sensitivity
- sensitivity to CDK4/6 inhibitor (cell viability) (MDA-MB-231 TNBC cells; MDA-231 cells and MDA-231 shControl cells): resistance
- sensitivity to CDK4/6 inhibitor (cell viability) (MDA-MB-231 TNBC cells; TNBC RANK KD cells (MDA-231 shRANK) vs RANK expressing cells): restored sensitivity
- sensitivity of TNBC cells to CDK4/6 inhibitor (cell viability) [2]: resistance

— patent US20220195059A1, “Rank Pathway Inhibitors in Combination with CDK Inhibitors” (INSTITUTO DE MEDICINA MOLECULAR JOÃO LOBO ANTUNES, priority 2019, published 2022)
